Results from paper PMC8690933, “Evans blue-modified radiolabeled fibroblast activation protein inhibitor as long-acting cancer therapeutics” (Theranostics, 2022).
Entries after “also recorded” stand apart in the source; their conditions may differ.

What was measured:
[1] = test system: U87MG tumor; assay: Small animal PET imaging in U87MG tumor-bearing mice; type: in vivo; conditions: 1 h p.i.
Procedure: All animal studies were approved by the Animal Care and Use Committee of Xiamen University and carried out in compliance with the national laws related to the conduct of animal experimentation. 6-week-old female BALB/c nude mice from Beijing Vital River Laboratory Animal Technology Co., Ltd. were used in this study. The right upper limbs of BALB/c nude mice were subcutaneously inoculated with the suspension of U87MG cells (5 × 10^6 cells in 100 μL of PBS). […] PET scans were performed by using Inveon small-animal PET scanner (Siemens Preclinical Solution). […] At 1 h p.i., the mice were anaesthetized and placed on the bed for PET imaging. […] PET images were reconstructed with attenuation correction and analyzed through drawing regions of interest (ROIs).

[2] = Biodistribution in healthy ICR mice; type: in vivo
Procedure: (§1) In biodistribution study of normal mice, healthy ICR mice (18-20 g) were randomly divided into 6 groups (n = 4/group), injected with radiotracers (740 kBq in 0.1 mL saline) and sacrificed at 0.25, 1, 4, 8, 24 and 48 h p.i. Tissues and organs of interest were collected, wet weighed, and counted by a γ-counter. In addition, BALB/c nude mice bearing U87MG tumors were injected with radiotracers for SPECT imaging, and then, sacrificed at 96 h p.i., the major organs and tumors were collected and weighed. Radioactivity was detected using a γ-counter, and the results were calculated as percentage of injected dose per gram (%ID/g).

[3] = test system: U87MG cells; assay: Cell uptake and blocking assay; type: cell-based
Procedure: (§2) U87MG cells were cultivated in Dulbecco modified Eagle medium (DMEM) containing 10% fetal calf serum (FCS) at 37 ℃ in 5% carbon dioxide (CO2). For cell uptake experiment, U87MG cells were seeded in 24-well plates (2 × 10^5/well) overnight. The cells were incubated with 37 kBq of ^177Lu-EB-FAPI series compounds in 0.5 mL of medium for 0.5, 1, 2, 4, 8 and 24 h at 37 °C. In the blocking group, FAPI-02 (10 μg/well) were added as inhibitors of the labeled precursors. For competition assays, U87MG cells were incubated simultaneously with different concentrations (10^-5-10^-11 M) of unlabeled FAPI-02 or EB-FAPI-B1 and ^68Ga-FAPI-02 in 0.4 mL of fresh medium for 1 h. At the corresponding time points, the medium was removed and the cells were washed twice with cold PBS (pH 7.4) and subsequently lysed with 1 mL of NaOH (0.1 M). Cell lysates was collected and the radioactivity was determined using a γ-counter. The cell uptake experiment was repeated four times for each time point and the competition assays were repeated three times at different concentrations.

[4] = In vitro stability in PBS and saline (radio-HPLC/TLC); type: physicochemical
[5] = Octanol/water partition coefficient; type: physicochemical
Procedure: A detailed scheme of chemical synthesis protocol is elaborated in the supplementary materials. To radiolabel the precursor with ^177Lu, 185-740 MBq of ^177LuCl3 was firstly diluted with 0.2 mL of 0.5 M NH4OAc (pH = 5.5) before incubating with EB-FAPI-Bn (50 μg dissolved in 10 μL dimethyl sulfoxide). The mixture was heated and thoroughly mixed for 30 min at 95 °C. Radiolabeling efficiency and radiochemical purity were tested using thin-layer chromatography (TLC) and high-performance liquid chromatography (HPLC). Radiolabeling of ^68Ga was performed by incubating with 50 μg precursor (pH = 4.5-5.0) at 95 ℃ for 10 min. The ^68Ga-labeled product was purified by C18 column extraction and the radiochemical purity was determined by HPLC. Stability of ^177Lu-EB-FAPI-B1, ^177Lu-EB-FAPI-B2, ^177Lu-EB-FAPI-B3 and ^177Lu-EB-FAPI-B4 (See Figure 1 for the structures) in PBS and saline were monitored up to 24 h using radio-HPLC. More information about radiochemistry, quality control and octanol/water partition coefficient can be found in supplemental information.

[6] = test system: U87MG tumor; assay: Small animal SPECT/CT imaging in U87MG tumor-bearing mice; type: in vivo, BALB/c nude mice
Procedure: (§3) All animal studies were approved by the Animal Care and Use Committee of Xiamen University and carried out in compliance with the national laws related to the conduct of animal experimentation. 6-week-old female BALB/c nude mice from Beijing Vital River Laboratory Animal Technology Co., Ltd. were used in this study. The right upper limbs of BALB/c nude mice were subcutaneously inoculated with the suspension of U87MG cells (5 × 10^6 cells in 100 μL of PBS). The mice underwent radioligand therapy experiments when the tumor volume reached about 100 mm^3 and small animal SPECT imaging studies when the tumor volume reached about 500 mm^3.
SPECT/CT imaging studies were performed using a nanoSPECT/CT preclinical scanner (Mediso, Hungary). About 37 MBq of radiotracers were injected intravenously into female ICR mice and U87MG tumor-bearing mice, whole body SPECT images were acquired at 1, 4, 24, 48, 72 and 96 h p.i. The acquisition parameters were as follows: 56.1, 112.9 and 208.4 keV energy peaks for ^177Lu, window width of 20%, matrix of 256 × 256, medium zoom, and 48 frames. Mice were anaesthetized using 1.5% isoflurane to maintain spontaneous breathing during imaging.

[7] = test system: U87MG tumor; assay: Biodistribution in U87MG tumor-bearing mice at 96 h p.i.; design: species or system BALB/c nude mice; conditions: ex vivo counting
Procedure: as §3, §1

[8] = test system: U87MG tumor; assay: Radioligand therapy study and tumor histopathology in U87MG tumor-bearing mice; type: in vivo, BALB/c nude mice
Procedure: as §3
(§4) Two weeks after inoculation of U87MG tumor cells, the average tumor volume reached about 100 mm^3 in BALB/c nude mice. The U87MG tumor-bearing mice were randomly divided into 4 groups (n = 8/group), and subsequently treated with saline, 30 MBq ^177Lu-EB-FAPI-B1, 18.5 MBq ^177Lu-EB-FAPI-B1, 7.4 MBq ^177Lu-EB-FAPI-B1, respectively. Tumor volumes and body weights of all mice were monitored every two days. Individual tumor size was calculated with the formula: length × width^2/2. The mice were euthanized when the tumor volume exceeded 1500 mm^3. Histopathologic staining was performed with an anti-human FAP mAb (ab207178, Abcam). Hematoxylin and eosin (H&E) staining and terminal deoxynucleotidyl transferase-mediated dUTP-biotin nick-end labeling (TUNEL) analysis were carried out using a commercially available kit (Beyotime).

[9] = Safety evaluation in the therapy study (body weight, H&E staining of major organs); type: in vivo, BALB/c nude mice
Procedure: as §4

[10] = target: T1, FAP (Homo sapiens, UniProt Q12884); assay: Competition assay against ^68Ga-FAPI-02 in U87MG cells; conditions: unlabeled ligand competing with ^68Ga-FAPI-02, 1 h, read-out: IC50 (binding affinity to FAP in vitro)
T1 construct: endogenous in cells; host or cells: U87MG cells
T1 sequence (Q12884 1-760): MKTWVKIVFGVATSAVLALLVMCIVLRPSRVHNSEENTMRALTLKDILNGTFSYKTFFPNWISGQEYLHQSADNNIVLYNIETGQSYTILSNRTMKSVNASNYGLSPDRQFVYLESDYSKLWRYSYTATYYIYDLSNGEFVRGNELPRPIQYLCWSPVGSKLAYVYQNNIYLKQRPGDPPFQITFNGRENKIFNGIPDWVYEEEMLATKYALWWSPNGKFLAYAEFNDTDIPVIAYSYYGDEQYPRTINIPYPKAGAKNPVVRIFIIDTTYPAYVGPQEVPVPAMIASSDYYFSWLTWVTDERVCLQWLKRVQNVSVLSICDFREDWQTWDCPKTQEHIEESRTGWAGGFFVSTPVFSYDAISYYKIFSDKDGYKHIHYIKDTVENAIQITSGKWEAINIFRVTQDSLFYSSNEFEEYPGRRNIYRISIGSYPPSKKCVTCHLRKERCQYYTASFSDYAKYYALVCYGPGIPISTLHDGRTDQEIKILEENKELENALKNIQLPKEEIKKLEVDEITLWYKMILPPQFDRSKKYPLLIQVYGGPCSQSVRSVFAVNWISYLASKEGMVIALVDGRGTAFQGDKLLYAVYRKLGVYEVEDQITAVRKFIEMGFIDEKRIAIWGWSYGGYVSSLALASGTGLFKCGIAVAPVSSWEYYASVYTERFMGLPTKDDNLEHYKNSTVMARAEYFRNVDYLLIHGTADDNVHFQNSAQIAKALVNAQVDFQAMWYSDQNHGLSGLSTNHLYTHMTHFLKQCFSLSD
Procedure: as §2

[11] = SPECT, value given with the increase from 24 h to 96 h p.i.

For `Cc1cc(-c2ccc(NC(=O)C(CCCCNC(=O)CCC(=O)N3CCN(CCCOc4ccc5nccc(C(=O)NCC(=O)N6CCC[C@H]6C#N)c5c4)CC3)NC(=O)CN3CCN(CC(=O)[O-])CCN(CC(=O)[O-])CCN(CC(=O)[O-])CC3)c(C)c2)ccc1N=Nc1ccc2c(S(=O)(=O)O)cc(S(=O)(=O)O)c(N)c2c1O.[68Ga+3]` (some centres unmarked) [^68Ga-EB-FAPI-B1], the “T/M ratio compared with ^68Ga-FAPI-02” value [1] was “higher T/M ratio” and the tumor uptake value [1] was 3.5 ± 0.22 %ID/g.

For `N#C[C@@H]1CCCN1C(=O)CNC(=O)c1ccnc2ccc(OCCCN3CCN(C(=O)CN4CCN(CC(=O)[O-])CCN(CC(=O)[O-])CCN(CC(=O)[O-])CC4)CC3)cc12.[68Ga+3]` [^68Ga-FAPI-02, reference compound], the tumor uptake value [1] was 0.85 ± 0.21 %ID/g and the “tumor uptake in the presence of the blocking agent EB-FAPI-B1” value ([1]; unlabeled EB-FAPI-B1 as competitor) was “decreased more than half”.

For `N#C[C@@H]1CCCN1C(=O)CNC(=O)c1ccnc2ccc(OCCCN3CCN(C(=O)CN4CCN(CC(=O)[O-])CCN(CC(=O)[O-])CCN(CC(=O)[O-])CC4)CC3)cc12.[177Lu+3]` [^177Lu-FAPI-02, reference compound], the “blood accumulation relative to ^177Lu-EB-FAPI-B1” value ([2]; 4 h p.i.) was “about 1%” and the blood uptake ([2]; 4 h p.i.) was 0.23 ± 0.06 %ID/g.

For `Cc1cc(-c2ccc(NC(=O)C(CCCCNC(=O)CCC(=O)N3CCN(CCCOc4ccc5nccc(C(=O)NCC(=O)N6CCC[C@H]6C#N)c5c4)CC3)NC(=O)CN3CCN(CC(=O)[O-])CCN(CC(=O)[O-])CCN(CC(=O)[O-])CC3)c(C)c2)ccc1N=Nc1ccc2c(S(=O)(=O)O)cc(S(=O)(=O)O)c(N)c2c1O.[177Lu+3]` (some centres unmarked) [^177Lu-EB-FAPI-B1], the “cellular uptake with blocking by unlabeled inhibitor” value ([3]; blocking group) was 2.25 ± 0.14%, the highest cellular uptake ([3]; incubation for 24 h) was 9.97 ± 0.42% and the “time stable in PBS (pH 7.4) and saline” value ([4]; PBS (pH 7.4) and saline) was “at least 24 h”. For the same compound, the “radiochemistry purity after incubation” value ([4]; PBS and saline, at 24 h and 48 h) was “over 95%”, the “Octanol/water partition coefficient (Log P)” value [5] was -1.90 ± 0.12 and the “tumor uptake on SPECT images” value ([6]; 4 h p.i.) was “obvious tumor uptake was observed”. The “tumor-to-muscle ratio (T/M)” value ([6]; SPECT, 24 h p.i.) was 12.29 ± 0.85, the “tumor-to-muscle ratio (T/M), peak” value ([6]; SPECT, 72 h p.i.) was 18.67 ± 3.75 and the “tumor-to-muscle ratio (T/M)” value ([6]; SPECT, 96 h p.i.) was 14.15 ± 0.13. The “tumor-to-heart ratio (T/H)” value [6, 11] was 14.28 ± 2.46, the “tumor-to-kidney ratio (T/K)” value [6, 11] was 2.35 ± 0.61 and the “tumor-to-liver ratio (T/L)” value [6, 11] was 3.73 ± 1.21. For the same compound, the blood uptake ([2]; 4 h p.i.) was 21.93 ± 2.13 %ID/g, the “kidney uptake (highest value)” value ([2]; 8 h p.i.) was 16.38 ± 2.98 %ID/g and the kidney uptake ([2]; 48 h p.i.) was 8.13 ± 1.36 %ID/g. For the same compound, the tumor uptake [7] was 12.42 ± 1.54 %ID/g, the “TUNEL staining of excised tumor” value ([8]; 18.5 MBq group versus saline group) was “remarkably more cell apoptosis” and the relative tumor size ([8]; single dose of 30, 18.5 or 7.4 MBq (all three doses), day 0 to day 22) was “no more than 5”. For the same compound, the “tumor growth compared to the saline group” value ([8]; single dose of 30 MBq, 18.5 MBq or 7.4 MBq) was “noteworthy tumor growth inhibitions; also recorded: noteworthy tumor growth delay”, the “H&E staining of excised tumor” value ([8]; treatment groups versus saline group) was “large necrotic areas” and the body weight change ([9]; all treatment groups (30, 18.5, 7.4 MBq)) was “slight body weight loss”. For the same compound, the “H&E staining of major organs (safety evaluation)” value ([9]; heart, liver, spleen, lung, kidneys after treatment) was “negligible side effect; also recorded: no distinct tissue damage”.

`N#C[C@@H]1CCCN1C(=O)CNC(=O)c1ccnc2ccc(OCCCN3CCN(C(=O)CN4CCN(CC(=O)O)CCN(CC(=O)O)CCN(CC(=O)O)CC4)CC3)cc12` [FAPI-02] gave an IC50 [10] of 10.9 nM.
